Assay results from PubChem BioAssay AID1963841 (Molecular Pharmacology Branch, DTP, NCI, 2024).

System: 439559-082-T-J2-PDC spheroid viability
Assay: Anticancer human tumor 439559-082-T-J2-PDC patient-derived colon adenocarcinoma cell line growth inhibition [POLQ]
Details: spheroids with HUVEC and MSC; for IC50: curve of first compound; for viability, T/C: stronger effect = lower value
Procedure, shortened: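 Three-cell-type spheroids modelling solid tumor plus stroma served as the readout system; POL inhibitors were tested individually and in combination, concentration ranges set by clinical Cmax where known.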

[1] = second compound 0.0316 µM, first compound 0.00316 µM
[2] = second compound 0.0316 µM, first compound 0.01 µM
[3] = second compound 0.0316 µM, first compound 0.0316 µM
[4] = second compound 0.0316 µM, first compound 0.1 µM
[5] = second compound 0.0316 µM, first compound 0.316 µM
[6] = second compound 0.0316 µM, first compound 1 µM
[7] = second compound 0.1 µM, first compound 0.00316 µM
[8] = second compound 0.1 µM, first compound 0.01 µM
[9] = second compound 0.1 µM, first compound 0.0316 µM
[10] = second compound 0.1 µM, first compound 0.1 µM
[11] = second compound 0.1 µM, first compound 0.316 µM
[12] = second compound 0.1 µM, first compound 1 µM
[13] = second compound 0.316 µM, first compound 0.00316 µM
[14] = second compound 0.316 µM, first compound 0.01 µM
[15] = second compound 0.316 µM, first compound 0.0316 µM
[16] = second compound 0.316 µM, first compound 0.1 µM
[17] = second compound 0.316 µM, first compound 0.316 µM
[18] = second compound 0.316 µM, first compound 1 µM
[19] = second compound 1 µM, first compound 0.00316 µM
[20] = second compound 1 µM, first compound 0.01 µM
[21] = second compound 1 µM, first compound 0.0316 µM
[22] = second compound 1 µM, first compound 0.1 µM
[23] = second compound 1 µM, first compound 0.316 µM
[24] = second compound 1 µM, first compound 1 µM
[25] = second compound 3.16 µM, first compound 0.00316 µM
[26] = second compound 3.16 µM, first compound 0.01 µM
[27] = second compound 3.16 µM, first compound 0.0316 µM
[28] = second compound 3.16 µM, first compound 0.1 µM
[29] = second compound 3.16 µM, first compound 0.316 µM
[30] = second compound 3.16 µM, first compound 1 µM
[31] = second compound 10 µM, first compound 0.00316 µM
[32] = second compound 10 µM, first compound 0.01 µM
[33] = second compound 10 µM, first compound 0.0316 µM
[34] = second compound 10 µM, first compound 0.1 µM
[35] = second compound 10 µM, first compound 0.316 µM
[36] = second compound 10 µM, first compound 1 µM
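Further: spheroids exposed to compounds for seven days before readout.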
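Wherever viability, T/C is given: 100% = DMSO vehicle control viability.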

C=CCn1c(=O)c2cnc(Nc3ccc(N4CCN(C)CC4)cc3)nc2n1-c1cccc(C(C)(C)O)n1 + Nc1ccc(C#CCN(C(=O)Cc2ncc(C(F)(F)F)cc2C(F)(F)F)c2ccc(F)cc2)nn1
IC50 (second compound 0.0316 µM): > 1000 nM | IC50 (second compound 0.1 µM): > 1000 nM | IC50 (second compound 0.316 µM): > 1000 nM | IC50 (second compound 1 µM): > 1000 nM | IC50 (second compound 3.16 µM): > 1000 nM | IC50 (second compound 10 µM): > 1000 nM | viability, T/C [1]: 111% | viability, T/C [2]: 109% | viability, T/C [3]: 109% | viability, T/C [4]: 105% | viability, T/C [5]: 97.5% | viability, T/C [6]: 84.7% | viability, T/C [7]: 108% | viability, T/C [8]: 94.4% | viability, T/C [9]: 100% | viability, T/C [10]: 95.5% | viability, T/C [11]: 97.9% | viability, T/C [12]: 78.6% | viability, T/C [13]: 108% | viability, T/C [14]: 115% | viability, T/C [15]: 97.3% | viability, T/C [16]: 99.1% | viability, T/C [17]: 97.5% | viability, T/C [18]: 84% | viability, T/C [19]: 105% | viability, T/C [20]: 102% | viability, T/C [21]: 98.4% | viability, T/C [22]: 101% | viability, T/C [23]: 103% | viability, T/C [24]: 78.7% | viability, T/C [25]: 99.6% | viability, T/C [26]: 107% | viability, T/C [27]: 98.8% | viability, T/C [28]: 99.4% | viability, T/C [29]: 89.5% | viability, T/C [30]: 79.3% | viability, T/C [31]: 105% | viability, T/C [32]: 109% | viability, T/C [33]: 103% | viability, T/C [34]: 105% | viability, T/C [35]: 99.9% | viability, T/C [36]: 71.2%

CCCS(=O)(=O)Nc1ccc(F)c(C(=O)c2c[nH]c3ncc(-c4ccc(Cl)cc4)cc23)c1F + Nc1ccc(C#CCN(C(=O)Cc2ncc(C(F)(F)F)cc2C(F)(F)F)c2ccc(F)cc2)nn1
IC50 (second compound 0.0316 µM): 7870 nM | IC50 (second compound 0.1 µM): 7940 nM | IC50 (second compound 0.316 µM): 8880 nM | IC50 (second compound 1 µM): 8430 nM | IC50 (second compound 3.16 µM): 8500 nM | IC50 (second compound 10 µM): 8290 nM | viability, T/C [3]: 66% | viability, T/C [4]: 72.5% | viability, T/C [5]: 94.9% | viability, T/C [6]: 90.5% | viability, T/C (second compound 0.0316 µM, first compound 3.16 µM): 78.2% | viability, T/C (second compound 0.0316 µM, first compound 10 µM): 42.5% | viability, T/C [9]: 79.8% | viability, T/C [10]: 64.4% | viability, T/C [11]: 92.4% | viability, T/C [12]: 98.2% | viability, T/C (second compound 0.1 µM, first compound 3.16 µM): 82% | viability, T/C (second compound 0.1 µM, first compound 10 µM): 41.9% | viability, T/C [15]: 65.4% | viability, T/C [16]: 77% | viability, T/C [17]: 93.4% | viability, T/C [18]: 103% | viability, T/C (second compound 0.316 µM, first compound 3.16 µM): 88.7% | viability, T/C (second compound 0.316 µM, first compound 10 µM): 45.9% | viability, T/C [21]: 52.6% | viability, T/C [22]: 68.7% | viability, T/C [23]: 95.9% | viability, T/C [24]: 107% | viability, T/C (second compound 1 µM, first compound 3.16 µM): 81% | viability, T/C (second compound 1 µM, first compound 10 µM): 44.6% | viability, T/C [27]: 61.6% | viability, T/C [28]: 66.6% | viability, T/C [29]: 103% | viability, T/C [30]: 99.6% | viability, T/C (second compound 3.16 µM, first compound 3.16 µM): 91.5% | viability, T/C (second compound 3.16 µM, first compound 10 µM): 44.3% | viability, T/C [33]: 60.9% | viability, T/C [34]: 69.3% | viability, T/C [35]: 89.4% | viability, T/C [36]: 104% | viability, T/C (second compound 10 µM, first compound 3.16 µM): 85.6% | viability, T/C (second compound 10 µM, first compound 10 µM): 43.8%

CC[C@@]1(O)C(=O)OCc2c1cc1n(c2=O)Cc2cc3c(CN(C)C)c(O)ccc3nc2-1 + Nc1ccc(C#CCN(C(=O)Cc2ncc(C(F)(F)F)cc2C(F)(F)F)c2ccc(F)cc2)nn1
IC50 (second compound 0.0316 µM): > 100 nM | IC50 (second compound 0.1 µM): > 100 nM | IC50 (second compound 0.316 µM): > 100 nM | IC50 (second compound 1 µM): > 100 nM | IC50 (second compound 3.16 µM): > 100 nM | IC50 (second compound 10 µM): > 100 nM | viability, T/C (second compound 0.0316 µM, first compound 0.000316 µM): 104% | viability, T/C (second compound 0.0316 µM, first compound 0.001 µM): 97% | viability, T/C [1]: 81.4% | viability, T/C [2]: 108% | viability, T/C [3]: 85.8% | viability, T/C [4]: 82.8% | viability, T/C (second compound 0.1 µM, first compound 0.000316 µM): 107% | viability, T/C (second compound 0.1 µM, first compound 0.001 µM): 103% | viability, T/C [7]: 96.3% | viability, T/C [8]: 105% | viability, T/C [9]: 85.9% | viability, T/C [10]: 76.3% | viability, T/C (second compound 0.316 µM, first compound 0.000316 µM): 108% | viability, T/C (second compound 0.316 µM, first compound 0.001 µM): 110% | viability, T/C [13]: 101% | viability, T/C [14]: 104% | viability, T/C [15]: 93.6% | viability, T/C [16]: 79% | viability, T/C (second compound 1 µM, first compound 0.000316 µM): 86.7% | viability, T/C (second compound 1 µM, first compound 0.001 µM): 98.6% | viability, T/C [19]: 83.8% | viability, T/C [20]: 97.9% | viability, T/C [21]: 88.7% | viability, T/C [22]: 75.4% | viability, T/C (second compound 3.16 µM, first compound 0.000316 µM): 114% | viability, T/C (second compound 3.16 µM, first compound 0.001 µM): 113% | viability, T/C [25]: 92% | viability, T/C [26]: 88.4% | viability, T/C [27]: 88% | viability, T/C [28]: 89.9% | viability, T/C (second compound 10 µM, first compound 0.000316 µM): 91.8% | viability, T/C (second compound 10 µM, first compound 0.001 µM): 94.8% | viability, T/C [31]: 87.9% | viability, T/C [32]: 90.2% | viability, T/C [33]: 86% | viability, T/C [34]: 75.9%

CCc1c2c(nc3ccc(O)cc13)-c1cc3c(c(=O)n1C2)COC(=O)[C@]3(O)CC + Nc1ccc(C#CCN(C(=O)Cc2ncc(C(F)(F)F)cc2C(F)(F)F)c2ccc(F)cc2)nn1
IC50 (second compound 0.0316 µM): > 1000 nM | IC50 (second compound 0.1 µM): > 1000 nM | IC50 (second compound 0.316 µM): > 1000 nM | IC50 (second compound 1 µM): > 1000 nM | IC50 (second compound 3.16 µM): 875 nM | IC50 (second compound 10 µM): 840 nM | viability, T/C [1]: 102% | viability, T/C [2]: 79.3% | viability, T/C [3]: 75.1% | viability, T/C [4]: 83.4% | viability, T/C [5]: 81.6% | viability, T/C [6]: 52.8% | viability, T/C [7]: 91.4% | viability, T/C [8]: 79.4% | viability, T/C [9]: 71% | viability, T/C [10]: 73.1% | viability, T/C [11]: 75.7% | viability, T/C [12]: 55.1% | viability, T/C [13]: 88.5% | viability, T/C [14]: 80.6% | viability, T/C [15]: 63.4% | viability, T/C [16]: 74.9% | viability, T/C [17]: 90.4% | viability, T/C [18]: 53.1% | viability, T/C [19]: 93.3% | viability, T/C [20]: 81% | viability, T/C [21]: 75% | viability, T/C [22]: 68.2% | viability, T/C [23]: 86% | viability, T/C [24]: 50.6% | viability, T/C [25]: 87.5% | viability, T/C [26]: 81.2% | viability, T/C [27]: 69.2% | viability, T/C [28]: 72.9% | viability, T/C [29]: 81.5% | viability, T/C [30]: 46.5% | viability, T/C [31]: 92.6% | viability, T/C [32]: 74.4% | viability, T/C [33]: 76.8% | viability, T/C [34]: 73.9% | viability, T/C [35]: 80% | viability, T/C [36]: 44.8%

COc1cccc(OCCCN)c1-c1cc(Nc2cnc(C#N)cn2)n[nH]1 + Nc1ccc(C#CCN(C(=O)Cc2ncc(C(F)(F)F)cc2C(F)(F)F)c2ccc(F)cc2)nn1
IC50 (second compound 0.0316 µM): 336 nM | IC50 (second compound 0.1 µM): 293 nM | IC50 (second compound 0.316 µM): 320 nM | IC50 (second compound 1 µM): 290 nM | IC50 (second compound 3.16 µM): 223 nM | IC50 (second compound 10 µM): 70.2 nM | viability, T/C [1]: 105% | viability, T/C [2]: 95.1% | viability, T/C [3]: 82.2% | viability, T/C [4]: 68.4% | viability, T/C [5]: 58.2% | viability, T/C [6]: 23.1% | viability, T/C [7]: 104% | viability, T/C [8]: 99.3% | viability, T/C [9]: 79.9% | viability, T/C [10]: 66.7% | viability, T/C [11]: 53% | viability, T/C [12]: 22.8% | viability, T/C [13]: 101% | viability, T/C [14]: 97.6% | viability, T/C [15]: 85.4% | viability, T/C [16]: 69% | viability, T/C [17]: 51.6% | viability, T/C [18]: 24.8% | viability, T/C [19]: 106% | viability, T/C [20]: 105% | viability, T/C [21]: 76.8% | viability, T/C [22]: 70.6% | viability, T/C [23]: 50.6% | viability, T/C [24]: 22.4% | viability, T/C [25]: 106% | viability, T/C [26]: 95.6% | viability, T/C [27]: 83.2% | viability, T/C [28]: 67.7% | viability, T/C [29]: 41.6% | viability, T/C [30]: 20.4% | viability, T/C [31]: 107% | viability, T/C [32]: 96% | viability, T/C [33]: 69.3% | viability, T/C [34]: 42.4% | viability, T/C [35]: 23.8% | viability, T/C [36]: 20.7%
